# Legend:
# [1] = test system: ATPase, Na+/K+, Heart, Pig; test: Secondary toxicity screen (MDS Pharma Services), enzyme assay; format: biochemical; conditions: 10 μM
# Method: A secondary pharmacological screening of molecules of interest at a fixed concentration is often practiced in the pharmaceutical industry in order to evaluate the effect of the compound on secondary targets that could result in untoward toxicity in-vivo. These secondary screens are well known in the art and can be carried out by labs which specialize in these tests such as MDS-Panlabs and CEREP. A secondary toxicity screen is performed with Quercetin-3′-O-phosphate at a concentration of 10 μM against 122 targets in enzyme, radioligand binding, and cellular assays by MDS Pharma Services by methods well known in the art. Inhibition is found in only the following targets (percent inhibition at 10 μM in parentheses): ATPase, Na+/K+, Heart, Pig (65%), Nitric Oxide Synthase, Endothelial (eNOS) (72%), Protein Tyrosine Kinase, FGFR2 (94%), Protein Tyrosine Kinase, FGFR1(96%), Protein Tyrosine Kinase, Insulin Receptor (91%), Protein Tyrosine Kinase, (82%), Protein Tyrosine Kinase, ZA70 (ZAP-70) (74%), UDP Glucuronosyltransferase, UGT1A1 (52%), Adenosine A1 (50%), Adrenergic α2A (57%), Dopamine D47 (51%), Peripheral Benzodiazepine Receptor (PBR) (53%), Transporter, Monoamine rabbit (68%), Serotonin (5-Hydroxytryptamine) 5-HT1A (62%).
# AdrenergicA2A = target: T1, AdrenergicA2A (Homo sapiens, UniProt P08913); test: GTPγS functional assay; format: biochemical; conditions: 10 μM; potentially inverse agonist
# T1 sequence (P08913 1-465): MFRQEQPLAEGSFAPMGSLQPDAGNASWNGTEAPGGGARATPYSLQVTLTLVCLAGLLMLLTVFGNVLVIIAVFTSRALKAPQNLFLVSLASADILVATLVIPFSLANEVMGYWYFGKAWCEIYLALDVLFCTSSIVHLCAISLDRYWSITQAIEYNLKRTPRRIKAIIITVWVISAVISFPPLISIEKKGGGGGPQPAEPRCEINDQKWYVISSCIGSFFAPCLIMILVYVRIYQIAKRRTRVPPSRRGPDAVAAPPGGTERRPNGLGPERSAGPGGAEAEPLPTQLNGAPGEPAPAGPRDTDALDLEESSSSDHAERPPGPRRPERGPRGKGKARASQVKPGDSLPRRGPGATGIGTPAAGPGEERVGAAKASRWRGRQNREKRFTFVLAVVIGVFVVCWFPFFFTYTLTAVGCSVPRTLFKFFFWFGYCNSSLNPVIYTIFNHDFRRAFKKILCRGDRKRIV
# Method: The compound is additionally tested in AdenosineA1, AdrenergicA2A, DopamineD25, Histamine H1-, and μ-Opiate GTPγS functional assays using a concentration of 10 μM.
# [2] = Stability of Quercetin-3′-O-phosphate in water; format: physicochemical; conditions: water at pH 8, 24 hours, ambient temperature
# Method: Quercetin-3′-O-phosphate is dissolved in water at about pH 8.
smiles,measurement,setting,value
O=c1c(O)c(-c2ccc(O)c(OP(=O)(O)O)c2)oc2cc(O)cc(O)c12 [Quercetin-3′-O-phosphate],percent inhibition,[1],65%
same,inhibition in GTPγS functional assay,AdrenergicA2A,marked negative inhibition
same,degradation seen by NMR,[2],no degradation

# — patent publication US7947733B2, “Phosphorylated pyrone analogs and methods” (Limerick BioPharma, priority 2007, dated 2011)
